From patent publication US20240044763A1, “GASTROINTESTINAL TRACT SIMULATION SYSTEM AND METHOD” (ProDigest, priority 2020, published 2024)
Where a name gives a salt, the structure may show the parent alone. Read-outs that look alike come from different tables or passages of the source.

What was measured:
[1] = gastrointestinal tract simulation system, fasted state, Sporanox solution with or without water; assay type: in vitro ADME
Description: FIGS. 5A-7B are a series of graphs showing the results of an experiment, simulating fasted state conditions, in which tests are performed in an experimental setup as shown in FIG. 1. […] At the start of the first experimental run, 20 mL of Sporanox® solution (corresponding to a dose of 200 mg itraconazole) was added to the stomach (without water) (Vdose 1=20 mL) whereas at the start of the second run, 20 mL of Sporanox solution was added together with 240 mL of water to the first compartment (with water) (Vdose 2=260 mL). […] Itraconazole concentrations were determined through UHPLC chromatography coupled to UV detection. All experiments were performed in biological triplicate.

[2] = cited from earlier work
[3] = cited from earlier work; remark: listed apart in the source

Row | area under the curve of the permeated compound ([1]; with versus without water, outer vessel (sink)) | AUC of solute concentration in the duodenum (fed state with carbohydrate solution compared to fasted state) | AUC of solute concentration in the duodenum (fed state with elevated stomach pH) | Compound | behaviour of itraconazole in the duodenum ([1]; without water, duodenum pH 6.5) | aqueous solubility [2] | decrease in indinavir bioavailability ([3]; high carbohydrate meal compared to fasted) | decrease in indinavir bioavailability ([3]; high fat meal compared to fasted) | decrease in indinavir bioavailability ([3]; high protein meal compared to fasted)
1 | absence of a substantial difference |  |  | CCC(C)n1ncn(-c2ccc(N3CCN(c4ccc(OCC5COC(Cn6cncn6)(c6ccc(Cl)cc6Cl)O5)cc4)CC3)cc2)c1=O (centres unmarked) [Itraconazole, itraconazole] | precipitation of a fraction of the administered dose | very low aqueous solubility |  |  | 
2 |  | increased | decreased substantially | CC(C)(C)NC(=O)[C@@H]1CN(Cc2cccnc2)CCN1C[C@@H](O)C[C@@H](Cc1ccccc1)C(=O)N[C@H]1c2ccccc2C[C@H]1O [indinavir sulfate] |  |  | 45% | 34% | 68%
